# Values joined by “and” are separate entries in the source; they are usually repeats but may differ in a detail not shown here. Equal entries are not always repeated.
# Experiments:
# TICs [1] = assay: Seahorse extracellular flux analysis (OCR, ECAR); format: cell-based; conditions: for FCCP-induced OCR: Nanog silenced TICs, ETO 100 μM
# Procedure: To measure cellular bioenergetics using extracellular flux, a Seahorse […] Extracellular Flux Analyzer was used following the published protocol (Ahfeldt et al., 2012; Ferrick et al., 2008). […] Cells were plated in gelatin-coated XF 24-well cell culture microplates at 2-7.5×10^4 cells/well (Seahorse Bioscience) and incubated in pre-warmed unbuffered DMEM medium (DMEM containing 2 mM GlutaMAX, 1 mM sodium pyruvate, 1.85 g l^−1 NaCl and 25 mM glucose) for 1 h. The oxygen consumption was measured by the XF24 extracellular flux analyzer (Seahorse Biosciences) in unbuffered DMEM assay medium supplemented with 1 mM pyruvate and 25 mM glucose after 45 to 60 min equilibration.
# The characteristic function of mature hepatocytes is metabolism/thermogenesis, driven by the catabolic breakdown of lipids. To distinguish these tumor cells at a functional level, the oxygen consumption rate (OCR) and extracellular acidification rate (ECAR) were analyzed as previously described (Ahfeldt et al.). It was observed that the basal OCR and ECAR rates were highest in the Nanog-silenced TICs. Compounds were added that modulated mitochondrial function sequentially and measured the effect on OCR and ECAR after the addition of each compound. Oligomycin was first administered to determine ATP turnover and the degree of proton leakage. […] After the addition of the electron transport chain decoupler (FCCP), the maximal respiratory capacity was measured. […] Finally, antimycin was administered to inhibit the flux of electrons through complex III and prevent oxygen consumption by the cytochrome c oxidase in the mitochondria as previously described. For determination of individual ETC complex activities, mitochondrial biogenesis was profiled by adding perturbation drugs: 2 μM oligomycin, 0.5 μM FCCP and 5 μM antimycin A/rotenone, in succession. OCR for complexes II-IV was measured by first inhibiting complex I with rotenone; OCR for complexes III-IV was measured by first inhibiting complex II with […]; and OCR for complex IV was measured by first inhibiting complex III with antimycin. The Etomoxir (ETO, 100 μM)-sensitive component of oxygen consumption rate (OCR) represents FAO. Absolute values of OCR were expressed as pmol min^−1 per 10^6 cells and mpH min^−1 per 10^6 cells. OCR and ECAR were determined by plotting the oxygen tension and acidification of the medium in the chamber as a function of time and normalized to protein concentration (picomoles per minute per milligram), respectively. […]
# The ECAR was measured over time at 10 min intervals. […] By uncoupling the proton gradient with FCCP, the maximum OCR rates were determined over the next two time intervals (II). By addition of glycolysis inhibitor (2-DG) or CPT1 inhibitor (ETO), the OCR rates were determined over the next two time intervals (III). […]
# TICs [2] = assay: ATP production measurements; format: cell-based; conditions: inhibitors for 4 hr
# Procedure: Relative ATP/cell assays were performed in 96-well plates. After cells were treated with inhibitors for 4 hr, culture media was removed. Cell Titer-Glo (100 μl: Promega) and CyQUANT (Invitrogen) were immediately added to each well. Luminescence and fluorescence readings were consecutively measured after room-temperature incubation for 10 min.
# TICs [3] = assay: Cytochrome c release, immunoblot of cytosol and heavy membrane fractions; format: cell-based
# mouse TICs = assay: TIC xenograft in NOG mice, sorafenib resistance; format: in vivo; conditions: mouse TICs subcutaneously in NOG mice
# TICs [4] = assay: ROS levels and spheroid formation of TICs; format: cell-based
# Procedure: To evaluate the status of mitochondria in TICs, the MitoTracker® Mitochondrion-selective probes for total mitochondrial mass (MitoTracker® Deep Red FM Invitrogen: M22426) and for oxidized state mitochondria (MitoSOX™ Red mitochondrial superoxide indicator) were added to the media, respectively, and cells subjected to FACS analyses. ROS labeling was performed as per the instructions for CellROX® Oxidative stress reagent Probes (CellROX® green reagent, Invitrogen C10444). In brief, the cells were incubated with staining solution (100 nM) in culture media at 37° C. for 30 minutes. After staining was complete, cells were washed with PBS and analyzed by fluorescent microscopy or flow cytometry.
# CD133 (+) Huh7 cells = assay: CD133 cell viability screening (luminescence, CellTiter-Glo); format: cell-based; conditions: Homo sapiens, Huh-7
# Procedure: (§1) CD133(+) and CD133(−) Huh7 cells were freshly sorted using the MACS CD133 micro bead kit (Miltenyi Biotec, 130-050-801) and were seeded in 100 μl medium containing 5000 cells per well in a 96-well plate. Once the cells attached, the FDA approved drug library was added to each well to a final concentration of 20 μg/ml in duplicate. After incubation for 48 hours, the cell viability was determined by a luminescence assay. […] After 16 hours, 1 μl of a […] drug solution was individually added to the 96 wells, resulting in a 20 μg/ml final concentration for most compounds. After 48 hours, CellTiter-Glo® Reagent (G8233, Promega) was added and the luminescence signal was measured with an automated plate reader. The raw data for each well was background-corrected by DMSO control wells on the same plate.
# Freshly sorted CD133 (+) Huh7 or mouse TICs were plated in 100 μl of medium containing 5000 cells per well in a 96-well plate. After 16 hours, 0.5 μl of a 2 μg/ml, 1 μg/ml, 0.2 μg/ml, 0.1 μg/ml, 0.02 μg/ml, or 0.01 μg/ml compound was added to each well in triplicate, resulting in a 10 μg/ml, 5 μg/ml, 1 μg/ml, 0.5 μg/ml, 0.1 μg/ml, and 0.05 μg/ml final concentration for most compounds, respectively. After 48 hours, the cells were either measured for cell viability by Cell-Glo® Reagent (Promega), or fixed with 1% PFA (paraformaldehyde) and stained with DAPI for high-throughput screening.
# [5] = as above; format: cell-based; conditions: human, CD133 (−) Huh7 cells (freshly MACS-sorted)
# Procedure: as §1
# TICs [6] = conditions: cited from earlier work
# hepatocytes = assay: Cytochrome c release, immunoblot of cytosol and heavy membrane fractions; format: cell-based; conditions: within 1-3 hours post treatment
# TICs [7] = assay: Stable-isotope glutaminolysis analysis; format: cell-based
# Procedure: To test the glutamine utilization, TICs were incubated in 1 mM of [U-^13C5, 2,5-^15N2]-glutamine (Cambridge Isotope Laboratory, Cat # CNLM-1275-H-PK) for 4 hr. When [U-^13C5, 2,5-^15N2]-glutamine is taken up by cells, it loses the ^15N on the 5th carbon and is converted to [U-^13C5, 2-^15N]-glutamate, which loses the ^15N on the 2nd carbon and becomes [U-^13C5]-glutamate after rapid equilibration with TCA cycle intermediate α-ketoglutarate. When glutamine and glutamate were analyzed by gas chromatography mass spectrometry (GC-MS) using electronic impact ionization (EI), their TFA derivatives gave rise to C2-C4 (m/z 152) and C2-C5 (m/z 198) fragments. Thus, the [U-^13C5, 2-^15N]-glutamate has a C2-C4 fragment of m/z 156 (M4; contains 3×^13C and a ^15N) and a C2-C5 fragment of […] (M5; contains 4×^13C and a ^15N), which represent the relative abundance of glutamine taken up by the TICs. On the other hand, [U-^13C5]-glutamate has a C2-C4 fragment of m/z 155 (M3; contains 3×^13C) and a C2-C5 fragment of […] (M4; contains 4×^13C). When the [U-^13C5]-glutamate enters TCA cycle metabolism, it will gradually lose the ^13C carbon after each cycle and generate M2, M1, and M0 C2-C4 fragment and M3, M2, M1, and M0 C2-C5 fragment, which represent the TCA cycle activity. […]
structure (smiles),measurement,setting,value
"O=CC[C@@H](O)[C@H](O)[C@H](O)CO [2-DG, 2-deoxyglucose]",FCCP-induced OCR,TICs [1],not
same,ATP production,TICs [2],did not significantly lower ATP production
"CCOC(=O)[C@@]1(CCCCCCOc2ccc(Cl)cc2)CO1 [ETO, Etomoxir]",cytochrome c release from mitochondria,TICs [3]; in response to sorafenib treatment,enhanced
same,FCCP-induced OCR,TICs [1],antagonized
same,ECAR,TICs [1]; sh-Nanog-TICs,inhibits
same,ECAR,TICs [1]; sh-Scr-TICs,does not affect
same,ATP production,TICs [2],reduced ATP production
same,xenograft tumor growth / sorafenib resistance,mouse TICs,sensitized TICs to sorafenib
C[n+]1ccc(-c2cc[n+](C)cc2)cc1 [Paraquat],ROS production,TICs [4],increased ROS production
same,tumor spheroid formation of TICs,TICs [4],significantly reduced
COc1cc(C)c(/C=C/C(C)=C/C=C/C(C)=C/C(=O)O)c(C)c1C [acitretin],viability at 20 µg/mL,"CD133 (+) Huh7 cells; 20 μg/ml, 48 hours",12%
same,IC50,"CD133 (+) Huh7 cells; CD133 killing effect, FIG. 44A",7.37 µg/mL and 22.6 µM
same,"viability at 48 h, 20 μg/ml",[5],70.4%
CNC(=O)c1cc(Oc2ccc(NC(=O)Nc3ccc(Cl)c(C(F)(F)F)c3)cc2)ccn1 [sorafenib],cytochrome c localisation following sorafenib treatment,TICs [3]; TICs,remained mostly in the heavy membrane (HM) fraction
same,tumor size reduction,"TICs [6]; sorafenib combined with knockdown of YAP1 (Chen et al., 2013)",~55%
same,suppression of tumor growth,"TICs [6]; sorafenib with antagonism of NANOG in TICs, tumor-bearing mice (Huynh et al., 2009)",~90%
same,xenograft tumor growth / sorafenib resistance,mouse TICs,very resistant
same,cytochrome c localisation following sorafenib treatment,hepatocytes,translocated from mitochondria into the soluble fraction
C=CC(N)CCC(=O)O (stereo not shown) [vigabatrin],percentage of labeled succinate,TICs [7],does not reduce
